For 21 compounds, Ki results are on record in US20060235222A1, “Indole-derivative modulators of steroid hormone nuclear receptors” (ELI LILLY AND COMPANY, priority 2003, published 2006).

The first test concerns the target T1, glucocorticoid receptor (Homo sapiens, UniProt P04150).
T1 construct: containing 50-200 ug of A549 cell extract and 1.86 nM; host or cells: A549 human lung epithelial cells
T1 sequence (P04150 1-777): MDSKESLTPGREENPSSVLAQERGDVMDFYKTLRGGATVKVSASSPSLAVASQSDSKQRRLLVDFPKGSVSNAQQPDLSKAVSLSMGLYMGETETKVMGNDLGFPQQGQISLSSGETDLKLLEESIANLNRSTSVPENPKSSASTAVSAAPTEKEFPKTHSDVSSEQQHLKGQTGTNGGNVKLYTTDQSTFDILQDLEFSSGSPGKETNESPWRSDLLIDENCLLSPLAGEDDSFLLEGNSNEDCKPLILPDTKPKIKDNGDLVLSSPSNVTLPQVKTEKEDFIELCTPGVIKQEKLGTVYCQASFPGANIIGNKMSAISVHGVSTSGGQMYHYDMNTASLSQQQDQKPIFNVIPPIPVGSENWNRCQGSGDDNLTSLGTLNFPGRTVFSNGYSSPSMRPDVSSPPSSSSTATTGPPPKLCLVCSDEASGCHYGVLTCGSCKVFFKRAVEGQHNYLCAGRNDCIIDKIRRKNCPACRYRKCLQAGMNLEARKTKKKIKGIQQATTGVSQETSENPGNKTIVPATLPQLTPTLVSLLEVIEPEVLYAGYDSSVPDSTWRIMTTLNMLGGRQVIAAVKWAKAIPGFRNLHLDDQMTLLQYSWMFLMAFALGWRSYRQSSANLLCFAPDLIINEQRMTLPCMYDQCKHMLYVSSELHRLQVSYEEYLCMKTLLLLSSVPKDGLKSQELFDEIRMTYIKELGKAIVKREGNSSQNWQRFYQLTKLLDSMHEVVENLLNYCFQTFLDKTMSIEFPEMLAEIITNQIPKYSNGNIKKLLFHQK
Kind of test: Glucocorticoid Receptor Binding Assay (Method 1), [3H]-dexamethasone competition, A549 cell extract. Conditions: 1.86 nM [3H]-dexamethasone, read-out: GR Ki (nM) Method 1. As to the method:
Glucocorticoid Receptor Binding Assay (Method 1):
A549 human lung epithelial cells (ATCC) are grown at a scale where gram quantity cell pellets are obtained. Harvested cell pellets are washed twice in cold phosphate buffered saline, centrifuged, and resuspended in cold assay binding buffer. The assay binding buffer consists of 10% glycerol, 50 mM Tris-HCl (pH7.2), 75 mM sodium chloride, 1.5 mM magnesium chloride, 1.5 mM EDTA, and 10 mM sodium molybdate. Cell suspensions were lysed via sonication, centrifuged, and the “extract” supernatant is snap frozen and stored at −80 C until needed.
Incubations are carried out at 4 degrees Celsius for 16 hours. After incubation, 70 ul of 3× dextran-coated charcoal solution is added to each reaction, mixed, and incubated for 8 minutes at RT. 3×-dextran-coated charcoal solution consists of 250 ml assay binding buffer, 3.75 g Norit A charcoal (Sigma), and 1.25 g dextran T-70 (Amersham). Charcoal/unbound radioligand complexes are removed by centrifugation of the plate and 140 ul of supernatant from each well is transferred to another 96 well Optiplate (Packard Instruments). 200 ul of Microscint-20 scinillant (Packard Instruments) is added to each well and amount of receptor bound radioligand is determined using Packard Instruments TopCount instrument.
With `CCC(CC)(c1ccccc1F)c1c[nH]c2c(NS(C)(=O)=O)cccc12` [Example 68, N-{3-[1-Ethyl-1-(2-fluoro-phenyl)-propyl]-1H-indol-7-yl}-methanesulfonamide], the Ki (commonly the dissociation constant of the complex between target and ligand, obtained from inhibition or displacement) was less than 500 nM.

Regarding `CCC(CC)(c1ccc(F)c(F)c1)c1c[nH]c2c(NS(C)(=O)=O)cccc12` [Example 64, N-{3-[1-(3,4-Difluoro-phenyl)-1-ethyl-propyl]-1H-indol-7-yl}-methanesulfonamide], the Ki was less than 500 nM.

As to `CCCC(C)(c1ccsc1)c1c[nH]c2c(NS(C)(=O)=O)cccc12` (stereo not shown) [Example 10, N-[3-(1-Methyl-1-thiophen-3-yl-butyl)-1H-indol-7-yl]-methanesulfonamide], the Ki was less than 500 nM.

As to `CCC(CC)(c1ccc(C(F)(F)F)cc1)c1c[nH]c2c(NS(C)(=O)=O)cccc12` [Example 63, N-{3-[1-Ethyl-1-(4-trifluoromethyl-phenyl)-propyl]-1H-indol-7-yl}-methanesulfonamide], the Ki was less than 500 nM.

The target in another test is T2, human MR (Homo sapiens, UniProt P08235).
T2 construct: The full length human MR gene is cloned from a human kidney or human brain cDNA library; inferred from own knowledge of the pAcHLT vector (N); made in house; host or cells: Sf9 insect cells (baculovirus)
T2 sequence (P08235 1-984): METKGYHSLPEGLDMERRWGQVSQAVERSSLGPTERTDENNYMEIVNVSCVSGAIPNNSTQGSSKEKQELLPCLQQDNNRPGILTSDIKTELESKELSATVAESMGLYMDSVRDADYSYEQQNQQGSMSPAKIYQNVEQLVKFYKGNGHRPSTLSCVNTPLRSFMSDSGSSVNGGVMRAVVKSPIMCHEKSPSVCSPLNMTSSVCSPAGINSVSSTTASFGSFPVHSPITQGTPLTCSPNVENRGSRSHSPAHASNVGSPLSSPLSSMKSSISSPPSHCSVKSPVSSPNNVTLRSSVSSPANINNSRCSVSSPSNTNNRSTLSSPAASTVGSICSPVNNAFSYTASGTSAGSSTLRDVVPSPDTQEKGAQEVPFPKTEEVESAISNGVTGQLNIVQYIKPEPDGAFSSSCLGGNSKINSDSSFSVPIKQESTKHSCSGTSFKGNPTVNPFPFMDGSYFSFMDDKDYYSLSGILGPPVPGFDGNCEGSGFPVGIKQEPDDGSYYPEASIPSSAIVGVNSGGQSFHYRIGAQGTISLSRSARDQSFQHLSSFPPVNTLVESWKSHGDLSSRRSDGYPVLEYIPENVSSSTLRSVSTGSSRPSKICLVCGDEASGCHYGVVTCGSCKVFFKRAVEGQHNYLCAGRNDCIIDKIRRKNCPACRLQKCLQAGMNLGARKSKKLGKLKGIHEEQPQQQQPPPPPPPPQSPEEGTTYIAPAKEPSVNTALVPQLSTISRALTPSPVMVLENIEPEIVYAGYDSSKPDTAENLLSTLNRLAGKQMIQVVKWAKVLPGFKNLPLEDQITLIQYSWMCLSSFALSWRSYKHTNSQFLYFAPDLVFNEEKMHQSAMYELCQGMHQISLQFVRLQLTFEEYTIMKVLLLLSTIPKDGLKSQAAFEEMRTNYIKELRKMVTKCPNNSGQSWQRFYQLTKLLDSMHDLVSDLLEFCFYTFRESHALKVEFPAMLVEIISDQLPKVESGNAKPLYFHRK
The test can be described thus: Mineralocorticoid Receptor Binding Assay (Method 1), [3H]-aldosterone competition. Conditions: 0.5 nM [3H]-aldosterone, human MR expressed in Sf9 cells. The procedure:
Mineralocorticoid Receptor Binding Assay (Method 1):
The full length human MR gene is cloned from a human kidney or human brain cDNA library. […] The PCR reaction is performed in a final volume of 50 μl containing about 1 μl of a 50× stock solution of polymerase; about 1 μl of a 50× stock solution of dNTP; about 5 μl of an appropriate PCR buffer; about 1 μl of each primer; about 5 μl of a H. kidney or H. brain cDNA library; and about 36 μl of water. The reaction is allowed to denature for about 30 seconds at 95 degrees Celsius, anneal for about 30 seconds at 55 degrees Celsius, and extend for about 5 minutes at 72 degrees Celsius, the sequence being repeated for a total of about 35 cycles. […] To extract the cDNA product from the agarose gel, the QIAEX II Gel Extraction protocol (QIAGEN, Inc.) is employed according to the manufacturer's instructions. Following extraction, the MR cDNA is cloned into an appropriate cloning vector (Zero Blunt TOPO PCR Cloning Kit (Invitrogen, Inc.) and a pAcHLT-baculovirus transfer vector (B.D./Pharminogen), then expressed in SF9 insect cells, essentially according to manufacturer's instructions. Sf9 cells are grown at a scale where gram quantity cell pellets are obtained for subsequent use in the MR binding assay. Harvested cell pellets are lysed by repeated freeze-thaw cycles (about 4) in a suitable lysis buffer then centrifuged at about 1×10^3 G (with the supernatant being saved for future assays).
MR binding assays are performed in a final total volume of about 250 μl containing about 20-25 μg of protein and 0.5 nM of [^3H]-aldosterone plus varying concentrations of test compound or vehicle. The assay binding buffer consists of 30 mM sodium molybdate, 30 mM of TRIS-HCl, 5 mM sodium phosphate, 5 mM sodium pyrophosphate, and about 10% glycerol, pH=7.5.
Incubations are carried out at 4 degrees Celsius with shaking for about 16 hours. 200 μl aliquots of each incubation are filtered onto Millipore HA 0.45 micron 96-well filter plates, pre-moistened with cold 30 mM TRIS-HCl. The filter plates are suctioned dry with vacuum and immediately washed 3× with cold 30 mM TRIS-HCl. The plates are then punched out and the amount of receptor-ligand complex is determined by liquid scintillation counting using 4 ml of Ready Protein Plus™ liquid scintillation cocktail.
For the compound `CC(c1ccc2c(c1)OCO2)(c1c[nH]c2c(NS(C)(=O)=O)cccc12)C1CC1` (stereo not shown) [Example 131, N-[3-(1-Benzo[1,3]dioxol-5-yl-1-cyclopropyl-ethyl)-1H-indol-7-yl]-methanesulfonamide], the Ki was less than 500 nM.

In turn, `CCC(CC)(c1ccccc1F)c1c[nH]c2c(NS(C)(=O)=O)cccc12` [Example 68, N-{3-[1-Ethyl-1-(2-fluoro-phenyl)-propyl]-1H-indol-7-yl}-methanesulfonamide] registered a Ki of less than 500 nM.

Regarding `CCC(CC)(c1ccc2ccn(C(C)=O)c2c1)c1c[nH]c2c(NS(C)(=O)=O)cccc12` [Example 183], the Ki is less than 500 nM.

As to `CCC(CC)(c1ccc(F)c(F)c1)c1c[nH]c2c(NS(C)(=O)=O)cccc12` [Example 64, N-{3-[1-(3,4-Difluoro-phenyl)-1-ethyl-propyl]-1H-indol-7-yl}-methanesulfonamide], the Ki was less than 500 nM.

`COc1cc(C(C)(c2c[nH]c3c(NS(C)(=O)=O)cccc23)C2CC2)ccc1F` (stereo not shown) [Example 125, N-{3-[1-Cyclopropyl-1-(4-fluoro-3-methoxy-phenyl)-ethyl]-1H-indol-7-yl}-methanesulfonamide] came in with a Ki of less than 500 nM.

`CCCC(C)(c1ccsc1)c1c[nH]c2c(NS(C)(=O)=O)cccc12` (stereo not shown) [Example 10, N-[3-(1-Methyl-1-thiophen-3-yl-butyl)-1H-indol-7-yl]-methanesulfonamide] came in with a Ki of less than 500 nM.

`CCC(CC)(c1ccc(C(F)(F)F)cc1)c1c[nH]c2c(NS(C)(=O)=O)cccc12` [Example 63, N-{3-[1-Ethyl-1-(4-trifluoromethyl-phenyl)-propyl]-1H-indol-7-yl}-methanesulfonamide] yielded a Ki of less than 500 nM.

`CCC(CC)(c1ccc2cc(C)oc2c1)c1c[nH]c2c(NS(C)(=O)=O)cccc12` [Example 188] showed a Ki of less than 500 nM.

`C[C@](c1ccc2c(c1)OCCO2)(c1c[nH]c2c(NS(C)(=O)=O)cccc12)C1CC1` [Example 194] gave a Ki of less than 500 nM.

Take `CCC(CC)(c1ccc2c(c1)OCCO2)c1c[nH]c2c(NS(=O)(=O)CC)cccc12` [Example 133, N-{3-[1-(2,3-Dihydro-benzo[1,4]dioxin-6-yl)-1-ethyl-propyl]-1H-indol-7-yl}-ethanesulfonamide]: the Ki is less than 500 nM.

`CCC(CC)(c1ccc2c(c1)OCCO2)c1c[nH]c2c(NS(C)(=O)=O)cccc12` [Example 128, N-{3-[1-(2,3-Dihydro-benzo[1,4]dioxin-6-yl)-1-ethyl-propyl]-1H-indol-7-yl}-methanesulfonamide] displayed a Ki of less than 500 nM.

Take `CC(c1ccc(F)cc1)(c1c[nH]c2c(NS(C)(=O)=O)cccc12)C1CCC1` (stereo not shown) [Example 127, N-{3-[1-Cyclobutyl-1-(4-fluoro-phenyl)-ethyl]-1H-indol-7-yl}-methanesulfonamide]: the Ki was less than 500 nM.

With `CC(C)(c1ccccc1-c1ccccc1)c1c[nH]c2c(NS(C)(=O)=O)cccc12` [Example 34, N-[3-(1-Biphenyl-2-yl-1-methyl-ethyl)-1H-indol-7-yl]-methanesulfonamide], the Ki was less than 500 nM.

For `CCC(COC)(c1ccccc1)c1c[nH]c2c(NS(C)(=O)=O)cccc12` (stereo not shown) [Example 74, N-[3-(1-Methoxymethyl-1-phenyl-propyl)-1H-indol-7-yl]-methanesulfonamide], the Ki is less than 500 nM.

With `CCS(=O)(=O)Nc1cccc2c([C@](C)(c3ccc(F)cc3F)C3CC3)c[nH]c12` (stereo in doubt) [Example 126, Ethanesulfonic acid {3-[1-cyclopropyl-1-(2,4-difluoro-phenyl)-ethyl]-1H-indol-7-yl}-amide], the Ki was less than 500 nM.

Compound `COc1ccc(C(C)(c2c[nH]c3c(NS(C)(=O)=O)cccc23)C2CC2)cc1F` (stereo not shown) [Example 123] yielded a Ki of less than 500 nM.

Consider `COc1cc(C(C)(c2c[nH]c3c(NS(C)(=O)=O)cccc23)C2CC2)ccc1Cl` (stereo not shown) [Example 124, N-{3-[1-(4-Chloro-3-methoxy-phenyl)-1-cyclopropyl-ethyl]-1H-indol-7-yl}-methanesulfonamide], for which the Ki was less than 500 nM.

As for `CC(c1ccc2c(c1)OCCO2)(c1c[nH]c2c(NS(C)(=O)=O)cccc12)C1CC1` (stereo not shown) [Example 129, N-{3-[1-Cyclopropyl-1-(2,3-dihydro-benzo[1,4]dioxin-6-yl)-ethyl]-1H-indol-7-yl}-methanesulfonamide], the Ki was less than 500 nM.

The compound `CCC(CC)(c1ccc2c(c1)nc(C)n2C)c1c[nH]c2c(NS(C)(=O)=O)cccc12` [Example 198] came in with a Ki of less than 500 nM.

Regarding `CCC(CC)(c1ccc2sc(NC(C)=O)nc2c1)c1c[nH]c2c(NS(C)(=O)=O)cccc12` [Example 196], the inhibition constant Ki is less than 500 nM.

Take `CCC(CC)(c1cccc2oc(C)cc12)c1c[nH]c2c(NS(C)(=O)=O)cccc12` [Example 184]: the Ki is less than 500 nM.
